# Laboratory results from PubChem BioAssay AID1963984 (Molecular Pharmacology Branch, DTP, NCI, 2024).
# System: 233499-124-R-J3-PDC spheroids with HUVEC/MSC, viability
# Test: Anticancer human tumor 233499-124-R-J3-PDC patient-derived colon adenocarcinoma cell line growth inhibition [PI3K]
# Details: for IC50: curve of first compound; for viability, T/C: stronger effect = lower value
# In short: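 We assembled tumor spheroids that included a stromal compartment of HUVEC and MSCs, then exposed them to targeted agents alone and together with PI3K pathway inhibitors. Concentration series descended by half-log from clinically achievable Cmax levels. Viability served as the endpoint.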
# 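Note: spheroids exposed to agents for seven days before readout.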
# 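Throughout, for viability, T/C: percent viability relative to DMSO vehicle control taken as 100%.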
smiles,measurement,setting,value
C#Cc1c(F)ccc2cc(O)cc(-c3ncc4c(N5CC6CCC(C5)N6)nc(OCC56CCCN5CC(F)C6)nc4c3F)c12 (configuration not stated) + CC(Nc1ncnc2nc[nH]c12)c1cc2cccc(Cl)c2c(=O)n1-c1ccccc1,IC50,second compound 0.0316 µM,> 10 µM
same,IC50,second compound 0.1 µM,> 10 µM
same,IC50,second compound 0.316 µM,> 10 µM
same,IC50,second compound 1 µM,> 10 µM
same,IC50,second compound 3.16 µM,> 10 µM
same,IC50,second compound 10 µM,> 10 µM
same,"viability, T/C","second compound 0.0316 µM, first compound 0.0316 µM",95%
same,"viability, T/C","second compound 0.0316 µM, first compound 0.1 µM",101%
same,"viability, T/C","second compound 0.0316 µM, first compound 0.316 µM",82.5%
same,"viability, T/C","second compound 0.0316 µM, first compound 1 µM",90.7%
same,"viability, T/C","second compound 0.0316 µM, first compound 3.16 µM",85.2%
same,"viability, T/C","second compound 0.0316 µM, first compound 10 µM",75.5%
same,"viability, T/C","second compound 0.1 µM, first compound 0.0316 µM",113%
same,"viability, T/C","second compound 0.1 µM, first compound 0.1 µM",114%
same,"viability, T/C","second compound 0.1 µM, first compound 0.316 µM",81.7%
same,"viability, T/C","second compound 0.1 µM, first compound 1 µM",94.7%
same,"viability, T/C","second compound 0.1 µM, first compound 3.16 µM",84%
same,"viability, T/C","second compound 0.1 µM, first compound 10 µM",73.2%
same,"viability, T/C","second compound 0.316 µM, first compound 0.0316 µM",112%
same,"viability, T/C","second compound 0.316 µM, first compound 0.1 µM",92.1%
same,"viability, T/C","second compound 0.316 µM, first compound 0.316 µM",105%
same,"viability, T/C","second compound 0.316 µM, first compound 1 µM",90.6%
same,"viability, T/C","second compound 0.316 µM, first compound 3.16 µM",87.9%
same,"viability, T/C","second compound 0.316 µM, first compound 10 µM",69.7%
same,"viability, T/C","second compound 1 µM, first compound 0.0316 µM",102%
same,"viability, T/C","second compound 1 µM, first compound 0.1 µM",102%
same,"viability, T/C","second compound 1 µM, first compound 0.316 µM",108%
same,"viability, T/C","second compound 1 µM, first compound 1 µM",95.5%
same,"viability, T/C","second compound 1 µM, first compound 3.16 µM",109%
same,"viability, T/C","second compound 1 µM, first compound 10 µM",90.6%
same,"viability, T/C","second compound 3.16 µM, first compound 0.0316 µM",110%
same,"viability, T/C","second compound 3.16 µM, first compound 0.1 µM",94.2%
same,"viability, T/C","second compound 3.16 µM, first compound 0.316 µM",101%
same,"viability, T/C","second compound 3.16 µM, first compound 1 µM",77.9%
same,"viability, T/C","second compound 3.16 µM, first compound 3.16 µM",87.5%
same,"viability, T/C","second compound 3.16 µM, first compound 10 µM",55.9%
same,"viability, T/C","second compound 10 µM, first compound 0.0316 µM",92.8%
same,"viability, T/C","second compound 10 µM, first compound 0.1 µM",89.4%
same,"viability, T/C","second compound 10 µM, first compound 0.316 µM",87.5%
same,"viability, T/C","second compound 10 µM, first compound 1 µM",84.7%
same,"viability, T/C","second compound 10 µM, first compound 3.16 µM",108%
same,"viability, T/C","second compound 10 µM, first compound 10 µM",84.7%
